According to PMC10400562, “Label-free measurement of antimicrobial peptide interactions with lipid vesicles and nanodiscs using microscale thermophoresis” (Scientific Reports, 2023):
Non-standard residues stand in square brackets, D forms with d. Residues, ends and D or L forms follow the SMILES beside them.

Key:
S. aureus ATCC 9144 = type: cell-based; details: for S. aureus MIC (ATCC 9144): ATCC 9144, 24 h
Experimental: (§1) The bacterial strains used were E. coli ATCC 25922 and S. aureus ATCC 9144. Overnight cultures and MIC assays were performed in cationic-adjusted BD BBL Mueller Hinton II Broth (MHB II, 212322, Becton, Dickson and Company, Sparks, MD, USA).
(§2) The MICs for 1–5 were determined using the CLSI M07-A9 guidelines. Working solutions were prepared in double distilled water containing max. 1% DMSO. A concentration range between 256–0.25 µg/mL was tested for each peptide. The bacterial inoculum was 1 × 10^6 cells/mL and incubated 1:1 with each test compound in a polypropylene 96-well round-bottom plate (655209, Greiner Bio-One, Kresmmuenster, Austria). Each MIC test was performed in three biological replicates, consisting of four technical replicates. Positive controls (without antibiotics) and negative controls (without bacteria) were included for each technical replicate. The reference antibiotic erythromycin was included to assure quality control. The plates were incubated for 24 h at 37 °C. The MIC value was defined as the lowest concentration of compound resulting in no visible bacterial growth.

E. coli ATCC 25922 = type: cell-based; details: for E. coli MIC (ATCC 25922): ATCC 25922, 24 h
Experimental: as §1, §2

[1] = Label-free MST, peptide binding to SMA-QA nanodiscs; details: for Kd: label-free MST, SMA-QA nanodiscs (cationic belt), 2500 nM AMP, Hill fit, mean ± SD of triplicates, '>' = minimum value; for SMA-QA KP, DMPC (MST) / SMA-QA KP, DMPC/PG (MST): partition coefficient from initial fluorescence on MST instrument, SMA-QA nanodiscs, hyperbolic fit, ± SD of triplicate fits
Experimental: The MST data for two nanodisc types, SMA and SMA-QA, were evaluated using the same methodology as the vesicle data, with FHot taken during the TRIC, and Fnorm plotted against log[lipid] and fit to Eq. (6).
The DMPC, and DMPC with 5% DMPG 21 mM vesicle stocks were used for the nanodisc preparation. The stocks were combined with an 8% SMA stock solution to yield a final SMA concentration of 1% for SMA nanodiscs. The stocks were combined with a 100 mg/mL SMA-QA stock to yield a final lipid:SMA-QA w/w ratio of 1:1.5. The combined SMA/SMA-QA and lipid mixture were incubated at room temperature overnight and purified by SEC. Fractions containing SMA/SMA-QA discs were concentrated using centrifugation filters. Total lipid concentration was determined by ^31P NMR (Figs. S4–S7). Nanodisc size was confirmed using a Malvern Zetasizer Nano ZS (Malvern Panalytical Ltd, Malvern, United Kingdom).
(§3) All MST measurements were conducted on a NanoTemper Monolith NT. Labelfree instrument, using Monolith NT. Labelfree standard treated zero background capillaries.
(§4) A dilution series of vesicles/nanodiscs was prepared from 3 mM to 100 nM lipid concentrations, comprising 15 discrete samples, and an additional zero lipid sample, for a total of 16 lipid concentrations. Final MST samples were prepared as a combination of 25 µL lipid solution and 25 µL 5 µM peptide solution (Table S1 in the Supporting Information).
(§5) MST measurements were conducted with excitation power set to 15%, with the MST power set to high. Laser time settings were: 3 s pre-laser, 30 s on time, and 3 s after heating. FHot was taken from the T-jump period after 1.5 s and FCold taken in the second prior to IR laser activation. For the evaluation of KP, the initial fluorescence was taken as the value reported during the period before the application of the laser. The MST response and initial fluorescence were extracted directly as a text file for further processing in MATLAB.
(§6) In a typical binding experiment that yields a sigmoidal curve, the Hill equation can be fitted to yield KD:[66]6 y=y0+EMaxLipid^n/KDn+Lipid^n where y is the MST response, y0 is the MST response of the AMP in an aqueous solution (i.e., in the absence of lipids), n is the Hill coefficient, and EMax is the maximal effect of the tested substrate. The removal of outlying MST response points was necessary. Erroneous points were identified by poor MST trace shapes or higher than expected initial fluorescence that was absent in the other replicates or subsequent points, but otherwise no further treatment of data was necessary. In all instances the MST response was plotted against log lipid concentration in nM and fit to Eq. (6).
(§7) The Kp of a molecule can be determined experimentally by observing changes in fluorescent intensity in the presence of an increasing concentration of lipid, and fitting to Eq. (8)[43].8 I/Iaq=1+KpVmLipidIL/Iaq/1+KPVmLipid
(§8) In Eq. (8) the fluorescence intensity of the AMP (I) is normalised to the fluorescence intensity of the AMP in an aqueous environment (Iaq), Vm is the molar volume of the lipids and IL is the fluorescence intensity of the AMP in the lipidic environment. For Vm, the average molar volume of the lipid composition is used. In the case of the DMPC only environments it is taken as the Vm of DMPC (1.023 nm^3), and in the DMPC-DMPG mixture it is the weighted average relative to the composition used (Vm DMPG = 0.997 nm^3)[54].

[2] = Label-free MST, peptide binding to 100 nm vesicles; details: 2500 nM AMP; for Kd: label-free MST (Trp fluorescence), lipid 0–1.5 mM, 10 mM TRIS pH 7.4 100 mM NaCl, mean ± SD of triplicates, '>' = minimum value; for Vesicle KP, DMPC (MST) / Vesicle KP, DMPC/PG (MST): partition coefficient from initial fluorescence on MST instrument, TRIS pH 7.4, ± SD of triplicate fits, judged unreliable by authors; for Vesicle KP, DMPC (MST): hyperbolic fit after removal of deviant points; for Vesicle KP, DMPC/PG (MST): hyperbolic fit
From the text: For KD evaluation by MST, FHot was registered during the temperature related intensity change (TRIC) phase of the MST trace (see “Methods”). The advantage of evaluating KD during the TRIC phase is that any potential effects of prolonged heating on the thermostability of the sample that may influence the binding can be avoided. The dose–response profile of MST response against lipid concentration for 1–5 largely follows a sigmoidal curve shape (Fig. 3A,B).
DMPC and DMPC:5% DMPG vesicles were prepared by solubilising a known weight of lipid in chloroform with a small amount of methanol to assist in the dissolution of the PG lipid head groups. The chloroform stock was dried in vacuo to produce a lipid film, which was further dried for additional 3 h. The lipid film was solubilised in 10 mM TRIS buffer (pH 7.4) containing 100 mM NaCl to yield a 20 mM milky lipid stock.
To produce the working vesicle stock, 1 mL of vesicle stock was extruded 20 times through a 0.1 µm filter using an Avanti Lipids mini-extruder. Vesicle size was confirmed using a Malvern Zetasizer Nano ZS (Malvern Panalytical Ltd, Malvern, United Kingdom).
as §3, §4, §5, §6, §7, §8

SPR; KP from the fits = details: buffer
[3] = Vesicle; KP from the fits; details: buffer
[4] = read-out: SMA-QA KD, DMPC (MST)
[5] = read-out: SMA-QA KD, DMPC/PG (MST)
[6] = Hill fit of Fnorm in TRIC phase, insufficient curve sampling, read-out: Vesicle KD, DMPC (MST)
[7] = Hill fit, read-out: Vesicle KD, DMPC/PG (MST)

| Compound | S. aureus MIC (ATCC 9144) (S. aureus ATCC 9144) [µg/mL] | E. coli MIC (ATCC 25922) (E. coli ATCC 25922) [µg/mL] | Kd [1, 4] [µM] | Kd [1, 5] [µM] | SMA-QA KP, DMPC (MST) [1] | SMA-QA KP, DMPC/PG (MST) [1] | Kd [2, 6] [µM] | Kd [2, 7] [µM] | Vesicle KP, DMPC (MST) [2] | Vesicle KP, DMPC/PG (MST) [2] | membrane partition coefficient KP (KP x 10^3) (SPR; KP from the fits; DMPC bilayer on SPR chip) | membrane partition coefficient KP (KP x 10^3) (SPR; KP from the fits; DMPC/PG bilayer on SPR chip) | membrane partition coefficient KP (KP x 10^3) ([3]; DMPC vesicles (MST)) | membrane partition coefficient KP (KP x 10^3) ([3]; DMPC/PG vesicles (MST)) | antimicrobial activity against tested strain (S. aureus ATCC 9144; S. aureus ATCC 9144, statement in text) | antimicrobial activity against tested strain (E. coli ATCC 25922; E. coli ATCC 25922, statement in text) |
| --- | --- | --- | --- | --- | --- | --- | --- | --- | --- | --- | --- | --- | --- | --- | --- | --- |
| N=C(N)NCCC[C@@H]1NC(=O)[C@H](CCCNC(=N)N)NC(=O)[C@H](Cc2c[nH]c3ccccc23)NC(=O)[C@H](Cc2c[nH]c3ccccc23)NC(=O)[C@H](Cc2c[nH]c3ccccc23)NC(=O)[C@H](CCCNC(=N)N)NC1=O [compound 1] (cyclo(WWWRRR)) | 4 | 8 | 142 ± 17 | 40 ± 5 | 7.07 ± 1.78 × 10^3 | 7.63 ± 1.89 × 10^3 | 21 ± 3 | 10 ± 5 | 7.24 ± 1.73 × 10^3 | 7.73 ± 1.58 × 10^3 | 6.65 ± 0.80 x10^3 | 12.71 ± 0.16 x10^3 | 7.24 ± 1.73 x10^3 | 7.73 ± 1.58 x10^3 | – | – |
| N=C(N)NCCC[C@@H]1NC(=O)[C@H](Cc2c[nH]c3ccccc23)NC(=O)[C@H](CCCNC(=N)N)NC(=O)[C@H](Cc2c[nH]c3ccccc23)NC(=O)[C@H](CCCNC(=N)N)NC(=O)[C@H](Cc2c[nH]c3ccccc23)NC1=O [compound 2] (cyclo(WRWRWR)) | 32 | 32 | > 541 | > 615 | 36.55 ± 11.82 × 10^3 | 12.62 ± 4.16 × 10^3 | 73 ± 53 | 24 ± 7 | 7.08 ± 2.32 × 10^3 | 16.97 ± 3.83 × 10^3 | 1.30 ± 0.09 x10^3 | 3.16 ± 0.15 x10^3 | 7.08 ± 2.32 x10^3 | 16.97 ± 3.83 x10^3 | – | – |
| NCCCC[C@@H]1NC(=O)[C@H](CCCCN)NC(=O)[C@H](Cc2c[nH]c3ccccc23)NC(=O)[C@H](Cc2c[nH]c3ccccc23)NC(=O)[C@H](Cc2c[nH]c3ccccc23)NC(=O)[C@H](CCCCN)NC1=O [compound 3] (cyclo(WWWKKK)) | 32 | 8 | 267 ± 47 | 145 ± 55 | 9.16 ± 2.86 × 10^3 | 4.93 ± 0.81 × 10^3 | 28 ± 3 | 17 ± 13 | 2.55 ± 0.89 × 10^3 | 11.05 ± 4.49 × 10^3 | 2.53 ± 0.08 x10^3 | 5.16 ± 0.34 x10^3 | 2.55 ± 0.89 x10^3 | 11.05 ± 4.49 x10^3 | – | – |
| NCCCC[C@@H]1NC(=O)[C@H](Cc2c[nH]c3ccccc23)NC(=O)[C@H](CCCCN)NC(=O)[C@H](Cc2c[nH]c3ccccc23)NC(=O)[C@H](CCCCN)NC(=O)[C@H](Cc2c[nH]c3ccccc23)NC1=O [compound 4] (cyclo(WKWKWK)) | 128 | 64 | > 713 | – | 6.15 ± 6.54 × 10^3 | 3.23 ± 1.87 × 10^3 | 282 ± 58 | 112 ± 29 | 8.56 ± 7.41 × 10^3 | 14.90 ± 4.84 × 10^3 | 0.53 ± 0.01 x10^3 | 0.63 ± 0.03 x10^3 | 8.56 ± 7.41 x10^3 | 14.90 ± 4.84 x10^3 | – | – |
| CC(C)C[C@@H]1NC(=O)[C@@H](CCCNC(=N)N)NC(=O)[C@H](CCCCN)NC(=O)[C@H](CC(N)=O)NC(=O)[C@@H](Cc2c[nH]c3ccccc23)NC(=O)[C@H](Cc2c[nH]c3ccccc23)NC1=O [compound 5] (cyclo(LW[dW]NK[dR])) | > 256 | > 256 | – | > 1000 | 17.12 ± 12.90 × 10^3 | 3.35 ± 0.57 × 10^3 | > 670 | > 650 | 3.10 ± 2.17 × 10^3 | 1.47 ± 0.07 × 10^3 | 0.28 ± 0.01 x10^3 | – | 3.10 ± 2.17 x10^3 | 1.47 ± 0.07 x10^3 | inactive | inactive |
